Assay results as given in publication PMC10333884, “Large‐scale phosphomimetic screening identifies phospho‐modulated motif‐based protein interactions” (Molecular Systems Biology, 2023).
Non-standard residues stand in square brackets, D forms with d. Residues, ends and D or L forms follow the SMILES beside them. pT = C[C@@H](OP(=O)(O)O)[C@H](N)C(=O)O; pS = N[C@@H](COP(=O)(O)O)C(=O)O

How the values were obtained:
Assay type in all cases: binding
[1] = molecular target: T1, AP2 μ2 (Homo sapiens, UniProt Q96CW1); experiment: FP displacement assay, AP2 μ2; conditions: probe FITC-ATG9A 5 nM, 50 mM sodium phosphate pH 7.4, room temperature, at least three technical replicates, read-out: KD values ± SEM
T1 construct: AP2_Mu__Q96CW1_160_435; GST (cleaved yes); made in house; host or cells: Escherichia coli BL21-Gold(DE3)
T1 sequence (Q96CW1 160-435): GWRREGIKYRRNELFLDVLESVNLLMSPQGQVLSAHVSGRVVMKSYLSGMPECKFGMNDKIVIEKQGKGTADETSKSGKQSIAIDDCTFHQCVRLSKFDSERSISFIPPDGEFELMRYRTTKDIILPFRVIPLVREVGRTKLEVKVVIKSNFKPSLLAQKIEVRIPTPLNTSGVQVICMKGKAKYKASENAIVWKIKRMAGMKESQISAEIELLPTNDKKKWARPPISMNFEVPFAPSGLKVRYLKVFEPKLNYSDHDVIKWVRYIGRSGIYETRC
Experimental: (§1) FP experiments were performed as described previously (Kliche et al, [2021]). Shortly, in order to monitor the binding event, FITC‐labelled peptides were used (excitation 495 nm, emission: 535 nm) and the FP signal was recorded in mP on a SpectraMax iD5 Multi‐Mode Microplate Reader (Molecular Devices) by measuring the emitted light in two angels. The measurements were performed at room temperature and prepared in nonbinding black half area 96‐well microplates (Corning®; 50 μl/well). For measuring direct binding, that is saturation curves, a 1:1 dilution series of protein domain (25 μl/well) was generated in 50 mM sodium phosphate buffer pH 7.4 and the measurement performed with 5 nM FITC‐labelled peptide (25 μl/well). The buffer‐corrected values were subsequently plotted with PRISM and fitted to the quadratic equation (Gianni et al, [2005]).
(§2) The 1:1 dilution series in this experiment was performed with the unlabelled peptide in 50 mM sodium phosphate buffer pH 7.4, so that each well‐contained unlabelled peptide (25 μl) at a certain concentration and pre‐formed complex (25 μl). The KD values of this indirectly monitored binding event were calculated as described previously (Nikolovska‐Coleska et al, [2004]). All measurements were at least in technical triplicates as well as biological duplicates when indicated. An amplitude shift between repeat measurements in the displacement experiments was occasionally observed due to variations in the protein preparations. If that was the case, the “active” protein concentration was back‐calculated according to the quadratic equation from the saturation curves performed in parallel. By comparing the active protein concentrations in the complex between different protein preparations, the amplitude was normalised.

[2] = molecular target: T2, Clathrin NTD (Homo sapiens, UniProt Q00610); experiment: FP displacement assay, clathrin NTD
T2 construct: GST (cleaved yes); made in house; host or cells: Escherichia coli BL21-Gold(DE3)
T2 sequence (Q00610 1-364): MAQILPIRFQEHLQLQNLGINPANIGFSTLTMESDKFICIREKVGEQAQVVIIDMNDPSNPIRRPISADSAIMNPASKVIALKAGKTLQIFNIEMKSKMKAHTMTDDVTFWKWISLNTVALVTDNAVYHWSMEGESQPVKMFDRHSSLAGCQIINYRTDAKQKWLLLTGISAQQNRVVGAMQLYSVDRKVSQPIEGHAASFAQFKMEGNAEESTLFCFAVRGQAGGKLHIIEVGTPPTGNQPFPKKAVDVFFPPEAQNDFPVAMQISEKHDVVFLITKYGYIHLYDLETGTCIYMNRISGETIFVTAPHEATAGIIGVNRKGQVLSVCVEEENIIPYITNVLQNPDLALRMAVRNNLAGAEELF
Experimental: as §1, §2

[3] = molecular target: T3, PDCD6IP Alix V domain (Homo sapiens, UniProt Q8WUM4); experiment: FP displacement assay, PDCD6IP Alix V domain; conditions: probe FITC-HIV1_Gag 5 nM, 50 mM sodium phosphate pH 7.4, room temperature, at least three technical replicates, read-out: KD values ± SEM
T3 construct: GST (cleaved yes); made in house; host or cells: Escherichia coli BL21-Gold(DE3)
T3 sequence (Q8WUM4 360-702): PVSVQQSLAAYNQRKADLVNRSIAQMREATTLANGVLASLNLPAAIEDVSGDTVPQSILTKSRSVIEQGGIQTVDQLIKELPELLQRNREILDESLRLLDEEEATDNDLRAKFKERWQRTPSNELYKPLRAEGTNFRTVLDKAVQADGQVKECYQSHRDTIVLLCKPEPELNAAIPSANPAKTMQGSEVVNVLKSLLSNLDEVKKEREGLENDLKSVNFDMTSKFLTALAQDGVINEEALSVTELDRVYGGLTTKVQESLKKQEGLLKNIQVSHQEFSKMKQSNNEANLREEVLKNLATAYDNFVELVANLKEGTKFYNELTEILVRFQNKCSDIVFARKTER
Experimental: as §1, §2

[4] = molecular target: T4, RANBP2 RanBD4 (Homo sapiens, UniProt P49792); experiment: FP displacement assay, RANBP2 RanBD4; conditions: probe FITC-C7orf25 5 nM, 50 mM sodium phosphate pH 7.4, room temperature, at least three technical replicates, read-out: KD values ± SEM
T4 construct: GST (cleaved yes); made in house; host or cells: Escherichia coli BL21-Gold(DE3)
T4 sequence (P49792 2924-3050): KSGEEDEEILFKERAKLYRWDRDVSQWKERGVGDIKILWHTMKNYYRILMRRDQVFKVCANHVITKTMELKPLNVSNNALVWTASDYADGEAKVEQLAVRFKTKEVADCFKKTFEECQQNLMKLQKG
Experimental: as §1, §2

Row | Structure (SMILES) | Kd [3] | Kd [4] | further results
1 | CC(=O)N[C@@H](Cc1ccccc1)C(=O)N1CCC[C@H]1C(=O)N[C@@H](CO)C(=O)N[C@@H](COP(=O)(O)O)C(=O)N[C@@H](Cc1ccc(O)cc1)C(=O)N[C@H](C(=O)N[C@@H](CCCCN)C(=O)N[C@@H](CC(C)C)C(=O)N[C@@H](CC(C)C)C(=O)N[C@@H](CCC(=O)O)C(=O)N[C@@H](CCC(=O)O)C(=O)N[C@@H](CC(N)=O)C(=O)N[C@@H](CCC(=O)O)C(=O)N[C@H](C(=O)N[C@@H](CCC(=O)O)C(=O)N[C@@H](C)C(N)=O)[C@@H](C)O)[C@@H](C)O [BAIAPL1_392–407 pS] (Ac-FPS[pS]YTKLLEENETEA-NH2) |  |  | Kd [1]: 0.93 ± 0.01 µM
2 | CC[C@H](C)[C@H](NC(=O)[C@H](CC(C)C)NC(=O)[C@H](CCC(N)=O)NC(=O)CNC(=O)[C@H](Cc1ccc(O)cc1)NC(C)=O)C(=O)N[C@@H](CC(=O)O)C(=O)N[C@@H](CC(C)C)C(=O)N[C@@H](CO)C(=O)N[C@@H](CO)C(=O)N1CCC[C@H]1C(=O)N[C@@H](CC(C)C)C(=O)N[C@H](C(=O)N[C@@H](CCC(N)=O)C(=O)N[C@@H](CC(C)C)C(=O)N[C@@H](CO)C(=O)N1CCC[C@H]1C(=O)N[C@@H](CCC(=O)O)C(N)=O)[C@@H](C)CC [GTSE1_692–707] (Ac-YGQLIDLSSPLIQLSPE-NH2) |  |  | Kd [2]: ~100 µM
3 | CC(=O)N[C@H](C(=O)N[C@@H](COP(=O)(O)O)C(=O)N1CCC[C@H]1C(=O)N[C@@H](CC(C)C)C(=O)N[C@H](C(=O)N[C@@H](CO)C(=O)N[C@@H](CC(C)C)C(=O)N[C@@H](Cc1ccc(O)cc1)C(=O)N1CCC[C@H]1C(=O)N[C@@H](C)C(=O)N[C@@H](CC(C)C)C(=O)N[C@@H](CCC(=O)O)C(=O)N[C@@H](C)C(=O)N[C@@H](CCCNC(=N)N)C(=O)N[C@@H](C)C(=O)N[C@@H](CC(C)C)C(N)=O)C(C)C)[C@@H](C)O [OTUD5_507–522 pS] (Ac-T[pS]PLVSLYPALEARAL-NH2) | 116 ± 20 µM |  | 
4 | CC(=O)N[C@H](C(=O)N[C@@H](CO)C(=O)N1CCC[C@H]1C(=O)N[C@@H](CC(C)C)C(=O)N[C@H](C(=O)N[C@@H](CO)C(=O)N[C@@H](CC(C)C)C(=O)N[C@@H](Cc1ccc(O)cc1)C(=O)N1CCC[C@H]1C(=O)N[C@@H](C)C(=O)N[C@@H](CC(C)C)C(=O)N[C@@H](CCC(=O)O)C(=O)N[C@@H](C)C(=O)N[C@@H](CCCNC(=N)N)C(=O)N[C@@H](C)C(=O)N[C@@H](CC(C)C)C(N)=O)C(C)C)[C@@H](C)O [OTUD5_507–522 wt] (Ac-TSPLVSLYPALEARAL-NH2) | 68 ± 6 µM |  | 
5 | CC[C@H](C)[C@H](NC(=O)[C@H](CC(C)C)NC(=O)[C@H](CC(N)=O)NC(=O)CNC(=O)CNC(=O)[C@H](Cc1ccc(O)cc1)NC(C)=O)C(=O)N[C@H](C(=O)N[C@@H](Cc1ccccc1)C(=O)N[C@@H](COP(=O)(O)O)C(=O)N1CCC[C@H]1C(=O)N[C@@H](CC(C)C)C(=O)N[C@@H](CCC(N)=O)C(=O)N1CCC[C@H]1C(=O)NCC(=O)N[C@@H](CCC(=O)O)C(=O)N[C@@H](Cc1ccccc1)C(=O)O)[C@@H](C)O [HURP832–846 pS Cterm] (Ac-YGGNLITF[pS]PLQPGEF-OH) |  |  | Kd [2]: < 3 µM; IC50 ([2]; Fig 6A, clathrin NTD, FP displacement, two to three technical replicates per protein preparation, 2 independent preparations, read-out: IC50 values of displacement curves, with SEM): 11 ± 4 µM
6 | CC(=O)N[C@@H](Cc1c[nH]cn1)C(=O)N[C@@H](CC(C)C)C(=O)N1CCC[C@H]1C(=O)N[C@@H](CC(C)C)C(=O)N[C@@H](CC(N)=O)C(=O)N[C@@H](COP(=O)(O)O)C(=O)N1CCC[C@H]1C(=O)N[C@@H](CC(C)C)C(=O)N1CCC[C@H]1C(=O)NCC(=O)N[C@@H](CO)C(=O)N[C@@H](CCC(=O)O)C(=O)N[C@@H](CC(C)C)C(=O)N[C@H](C(=O)N[C@@H](CCCCN)C(=O)N[C@@H](Cc1ccc(O)cc1)C(N)=O)[C@@H](C)O [INTS6_145–159 pS] (Ac-HLPLN[pS]PLPGSELTKY-NH2) |  | 733 ± 128 µM | 
7 | CC(=O)N[C@@H](CCCCN)C(=O)N[C@@H](Cc1ccc(O)cc1)C(=O)N[C@@H](CO)C(=O)N[C@@H](CC(=O)O)C(=O)N[C@@H](CC(=O)O)C(=O)N[C@H](C(=O)N1CCC[C@H]1C(=O)N[C@@H](CC(C)C)C(=O)N1CCC[C@H]1C(=O)N[C@H](C(=O)N1CCC[C@H]1C(=O)N[C@@H](CO)C(=O)N[C@@H](Cc1ccc(O)cc1)C(=O)N[C@@H](CCCCN)C(=O)N[C@@H](Cc1ccc(O)cc1)C(=O)N[C@@H](CC(N)=O)C(N)=O)[C@@H](C)OP(=O)(O)O)[C@@H](C)O [DHX38_260–275 pS] (Ac-KYSDDTPLP[pT]PSYKYN-NH2) |  | 167 ± 21 µM | 
8 | CC(=O)N[C@@H](Cc1c[nH]cn1)C(=O)N[C@@H](CC(C)C)C(=O)N1CCC[C@H]1C(=O)N[C@@H](CC(C)C)C(=O)N[C@@H](CC(N)=O)C(=O)N[C@@H](CO)C(=O)N1CCC[C@H]1C(=O)N[C@@H](CC(C)C)C(=O)N1CCC[C@H]1C(=O)NCC(=O)N[C@@H](CO)C(=O)N[C@@H](CCC(=O)O)C(=O)N[C@@H](CC(C)C)C(=O)N[C@H](C(=O)N[C@@H](CCCCN)C(=O)N[C@@H](Cc1ccc(O)cc1)C(N)=O)[C@@H](C)O [INTS6_145–159 wt] (Ac-HLPLNSPLPGSELTKY-NH2) |  | 334 ± 35 µM | 
9 | CC[C@H](C)[C@H](NC(=O)[C@H](CCCCN)NC(=O)[C@H](CC(C)C)NC(=O)[C@@H]1CCCN1C(=O)[C@H](CO)NC(=O)[C@@H](NC(=O)[C@H](CCC(N)=O)NC(=O)[C@@H]1CCCN1C(=O)[C@H](Cc1ccc(O)cc1)NC(=O)[C@H](CC(C)C)NC(=O)[C@@H]1CCCN1C(=O)[C@H](CCCNC(=N)N)NC(=O)[C@H](CC(C)C)NC(=O)[C@@H]1CCCN1C(=O)[C@H](CO)NC(=O)[C@H](C)NC(C)=O)[C@@H](C)CC)C(N)=O [FOXK1_212–227 wt] (Ac-ASPLRPLYPQISPLKI-NH2) | 25 ± 3 µM |  | 
10 | CC[C@H](C)[C@H](NC(=O)[C@H](CCCCN)NC(=O)[C@H](CC(C)C)NC(=O)[C@@H]1CCCN1C(=O)[C@H](COP(=O)(O)O)NC(=O)[C@@H](NC(=O)[C@H](CCC(N)=O)NC(=O)[C@@H]1CCCN1C(=O)[C@H](Cc1ccc(O)cc1)NC(=O)[C@H](CC(C)C)NC(=O)[C@@H]1CCCN1C(=O)[C@H](CCCNC(=N)N)NC(=O)[C@H](CC(C)C)NC(=O)[C@@H]1CCCN1C(=O)[C@H](CO)NC(=O)[C@H](C)NC(C)=O)[C@@H](C)CC)C(N)=O [FOXK1_212–227 pS] (Ac-ASPLRPLYPQI[pS]PLKI-NH2) | 13 ± 2 µM |  | 
11 | CC(=O)N[C@@H](CCCCN)C(=O)N[C@@H](Cc1ccc(O)cc1)C(=O)N[C@@H](CO)C(=O)N[C@@H](CC(=O)O)C(=O)N[C@@H](CC(=O)O)C(=O)N[C@H](C(=O)N1CCC[C@H]1C(=O)N[C@@H](CC(C)C)C(=O)N1CCC[C@H]1C(=O)N[C@H](C(=O)N1CCC[C@H]1C(=O)N[C@@H](CO)C(=O)N[C@@H](Cc1ccc(O)cc1)C(=O)N[C@@H](CCCCN)C(=O)N[C@@H](Cc1ccc(O)cc1)C(=O)N[C@@H](CC(N)=O)C(N)=O)[C@@H](C)O)[C@@H](C)O [DHX38_260–275 wt] (Ac-KYSDDTPLPTPSYKYN-NH2) |  | 1500 µM | 
